Source: US4977161A, “Isoxazolopyridine type mevalonolactones” (Nissan Chemical Industries, Ltd., priority 1988, dated 1990)
pIC50: −log10 of the molar value. Each block holds one compound with its values, some of them ahead of it.

Assays:
[1] = test system: cholesterol biosynthesis in Hep G2 cells; assay: Test B-1: Inhibition of cholesterol biosynthesis in culture cells (Hep G2); format: cell-based; conditions: Homo sapiens, HepG2, 100×10^-9 M/l, [2-14C]sodium acetate added at 0 hr, read-out: Inhibition activities by Test B-1
Protocol: Hep G2 cells at over 5th passage were seeded to 12 well plates and incubated with Dulbecco's modified Eagle (DME) medium containing 10% of fetal bovine serum (FBS) at 37° C., 5% CO2 until cells were confluent for about 7 days. Cells were exposed to the DME medium containing 5% of lipoprotein deficient serum (LpDS) prepared by ultracentrifugation method for over 24 hours. Medium was changed to 0.5 ml of fresh 5% LpDS containing DME before assay and 10 μl of test compound solution dissolved in water or DMSO were added. 0.2 μCi of [2-^14 C]sodium acetate (20 μl) was added at 0 hr(B-1) or 4 hrs(B-2) after addition of compounds. After 4 hrs further incubation with [2-^14 C] sodium acetate, medium was removed and cells were washed with phosphate buffered saline (PBS) chilled at 4° C. Cells were scraped with rubber policeman and collected to tubes with PBS and digested with 0.2 ml of 0.5 N KOH at 37° C. Aliquot of digestion was used for protein analysis and remaining was saponified with 1 ml of 15% EtOH-KOH at 75° C. for 1 hour. Nonsaponifiable lipids were extracted with petroleum ether and ^14 C radioactivity was counted. Counts were revised by cell protein and indicated with DPM/mg protein. Inhibitory activity of compounds was indicated with IC50.
With respect to the compounds of the present invention, the inhibitory activities against the cholesterol biosynthesis in which HMG-CoA reductase serves as a rate limiting enzyme, were measured by the above Test A and B. The results are shown in Tables 2 and 3.
In Table 3, the inhibition activities of the test compounds at a concentration of 100×10^-9 M/l, are shown.

[2] = test system: cholesterol biosynthesis in which HMG-CoA reductase serves as a rate limiting enzyme; assay: Test A: Inhibition of cholesterol biosynthesis from acetate in vitro; format: biochemical, male Wistar rat; conditions: for Relative activities by Test A: based on the activities of CS-514 by Test A being evaluated to be 1
Protocol: Enzyme solution was prepared from liver of male Wistar rat billialy connulated and discharged bile for over 24 hours. Liver was cut out at mid-dark and microsome and supernatant fraction which was precipitable with 40-80% of solution of ammonium sulfate (sup fraction) were prepared from liver homogenate according to the modified method of Knauss et. al.; Kuroda, M., et. al., Biochim. Biophys. Acta, 489, 119 (1977). For assay of cholesterol biosynthesis, microsome (0.1 mg protein) and sup fraction (1.0 mg protein) were incubated for 2 hours at 37° C. in 200 μl of the reaction mixture containing ATP; 1 mM, Glutathione; 6 mM, Glucose-1phosphate; 10 mM, […]; 0.25 mM, NADP; 0.25 mM, CoA; 0.04 mM and 0.2 mM [2-14C]sodium acetate (0.2 μCi) with 4 μl of test compound solution dissolved in water or dimethyl sulfoxide. To stop reaction and saponify, 1 ml of 15% EtOH-KOH was added to the reactions and heated at 75° C. for 1 hour. Nonsaponifiable lipids were extracted with petroleum ether and incorporated ^14 C radioactivity was counted. Inhibitory activity of compounds was indicated with IC50.

ICR male mice = assay: Test D: Acute toxicity; format: in vivo; conditions: oral, 0.5% CMC suspension, group of three mice; dose not given
Protocol: A 0.5% CMC suspension of a test compound was orally administered to ICR male mice (group of three mice). The acute toxicity was determined based on the mortality after seven days.

cholesterol biosynthesis = assay: Test C: Inhibition of cholesterol biosynthesis in vivo; design: species or system male Sprague-Dawley rats; conditions: oral, 0.2 mg/kg
Protocol: Male Sprague-Dawley rats weighing about 150 g were fed normal Purina chow diet and water ad libitum, and exposed to 12 hours light/12 hours dark lighting pattern
(2:00 PM -2:00 AM dark) prior to use for in vivo inhibition test of cholesterol biosynthesis. Animals were separated groups consisting of five rats as to be average mean body weight in each groups. Test compounds at dosage of 0.02-2.0 mg/kg body weight (0.4 ml/100 g body weight), were dissolved in water or suspended in 0.5% methyl cellulose and orally administered at 2-3 hours before mid-dark (8:00 PM), while cholesterol biosynthesis reaches to maximum in rats. As control, rats were orally administered only water or vehicle. At 90 minutes after sample administration, rats were injected intraperitoneally with 10 μCi of [2-^14 C]sodium acetate at volume of 0.2 ml per one. 2 Hours later, blood samples were obtained and serum were separated immediately. Total lipids were extracted according to the method of Folch et al. and saponified with EtOH-KOH. Nonsaponifiable lipids were extracted with petroleum ether and radio activity incorporated into nonsaponifiable lipids was counted.
Inhibitory activity was indicated as percent decrease of counts in testing groups (DPM/2 ml serum/2 hours) from that in control group.

Relative activities by Test A [2]: 1.6
Compound: CCOC(=O)CC(O)CC(O)/C=C/c1c(C(C)C)nc2onc(C)c2c1-c1ccc(F)cc1 (stereo not drawn) [Compound I-1-1]
inhibition at 0.1 µM [1]: 50.1%

Compound: CCOC(=O)CC(O)CC(O)/C=C/c1c(C(C)C)nc2onc(-c3ccccc3)c2c1-c1ccc(F)cc1 (stereo not drawn) [Compound I-1-2]
inhibition at 0.1 µM [1]: 57.3%

Compound: CC(C)c1nc2onc(-c3ccccc3)c2c(-c2ccc(F)cc2)c1/C=C/C(O)CC(O)CC(=O)O (stereo not drawn) [Compound I-5-2]
acute toxicity, mortality after seven days (ICR male mice): only one animal of the three animals died | inhibition at 0.1 µM [1]: 43.2% | Relative activities by Test A [2]: 0.6 | percent decrease of counts relative to the control group (DPM/2 ml serum/2 hours) (cholesterol biosynthesis): 34.3%

Compound: CC[C@H](C)C(=O)O[C@H]1C[C@H](O)C=C2C=C[C@H](C)[C@H](CC[C@@H](O)C[C@@H](O)CC(=O)O)[C@H]21 [CS-514, reference compound]
inhibition at 0.1 µM [1]: 18.4% | pIC50 ([2]; rat liver microsome and sup fraction, [2-14C]sodium acetate, 2 hours at 37° C.): 8.05 | percent decrease of counts relative to the control group (DPM/2 ml serum/2 hours) (cholesterol biosynthesis): 34%

Compound: CCOC(=O)CC(=O)CC(O)/C=C/c1c(C(C)C)nc2onc(C)c2c1-c1ccc(F)cc1 (stereo not drawn) [Compound II-1, Ethyl (E)-7-[4'-(4"-fluorophenyl)-3'-methyl-6'-(1"-methylethyl)isoxazolo[-5,4-b]pyridin-5-yl]-5'-hydroxy-3-oxohepto-6-enoate]
inhibition at 0.1 µM [1]: 52.6%

Relative activities by Test A [2]: 1.3
Compound: Cc1noc2nc(C(C)C)c(/C=C/C(O)CC(O)CC(=O)O)c(-c3ccc(F)cc3)c12 (stereo not drawn) [Compound I-5-1, Sodium (E)-7-[4'-(4"-fluorophenyl)-3'-methyl-6'-(1"-methylethyl)isoxazolo[5,4-b]pyridin-5'-yl]-3,5-dihydroxyhept-6-enoate]
